# Test results as given in patent publication US10821142B2, “Cancer treatment and diagnosis” (priority 2015, dated 2020).
# Key:
# [1] = system: STING-dependent genes in murine embryonic fibroblasts; experiment: Gene array and qPCR of WT and SKO MEFs treated with AOM or DMH; assay type: cell-based, mouse; details: WT and SKO MEFs; DMH 1 mM for 8 hours
# Procedure: FIGS. 1A-1E show activation of STING-dependent genes by azoxymethane (AOM) (FIG. 1A) Gene array analysis of Wild type (WT) and STING deficient (SKO) mouse embryonic fibroblasts (MEFs) treated with AOM at 0.14 mM for 8 hours (Left) and 1,2-dimethylhydrazine (DMH) at 1 mM for 8 hours (Right). Highest variable genes are shown. Rows represent individual genes; columns represent individual samples. Grayscale indicates transcript levels below, equal to, or above the mean. Scale represents the intensity of gene expression (log 2 scale ranges between −2.4 and 2.4). (FIG. 1B) qPCR analysis of Cxcl10 and Ifit3 in MEFs treated with AOM and DMH same as FIG. 1A. (FIG. 1C) qPCR analysis of Cxcl10 in Human epithelial cell (FHC) treated with AOM and DMH at 1 mM for 24 hours. (FIG. 1D) FHC cells were transfected with STING or control siRNA for 72 hours followed by AOM and DMH treatment same as FIG. 1C, and were then subjected to Cxcl0 mRNA expression (Left). STING expression level after siRNA treatment was determined by qPCR (Right). […] (FIG. 1E) STING Immunohistochemistry staining of the colon tissue from WT and SKO mice (Left) and Human. All images were shown at original magnification, 200×.
# Towards these objectives, the AOM/DSS model, as described above, was utilized and analyzed the effects of AOM and precursor DMH upon STING signaling. Principally, wild type (WT) or STING-deficient (SKO) murine embryonic fibroblasts (MEF) were treated in vitro with DMH or metabolite AOM for 8 hours and microarray analysis performed to analyze the consequences to gene expression. […] The observed STING-dependent gene expression was confirmed following RT-PCR analysis of select mRNA such as Cxcl10 and IFIT3 (FIG. 1B). […] Thus, the DNA damaging agent DMH/AOM can invoke STING-dependent signaling.
# Total RNA was isolated from cells or tissues with RNeasy Mini kit (74104, Qiagen, Valencia, Calif.). RNA quality was analyzed by Bionalyzer RNA 6000 Nano (Agilent Technologies, Santa Clara Calif.). […]
# IRF3/NF-κB translocation = experiment: Immunofluorescence of IRF3/NF-κB translocation in FHC treated with DMH/AOM; assay type: cell-based, human; details: 3 mM for 48 hours
# Procedure: FIGS. 8A-8C show fluorescence microscopy analysis (related to FIG. 1) of DAPI staining in WT and SKO MEFs treated with 3 mM of AOM of 3 mM of DMH (FIG. 8A) and anti-dsDNA staining and the ration of cytoplasm to nucleus (FIG. 8B) in Human normal colon epithelial cells (FHC) treated with 3 mM of AOM or 3 mM of DMH for 48 hours. (FIG. 8C) Immunofluorescence microscopy analysis of FHC treated with AOM and DMH sane as FIG. 8A for 48 hours using p65 or IRF3 antibody. Images shown at original magnification, 160×.
# To start determining the mechanisms underlining the cause of DMH/AOM-induced STING activity, MEF or FHC cells were treated with these drugs and observed by two different approaches, DAPI staining and immunofluorescence (IF) using anti-dsDNA antibody, the leakage of DNA into the cytosol (FIGS. 8A and 8B). Cytosolic DNA activates STING and stimulates STING/TBK1 trafficking via autophagy to endosomal regions harboring the transcription factors IRF3 and NF-κB, which triggers cytokine production. […]
# Cells were cultured and treated in their appropriate media on Lab-Tek II chamber slides. […] Immunostaining was performed with rabbit-anti-STING polyclonal followed by fluorescence conjugated secondary antibodies (FITC-goat-anti-rabbit) (Invitrogen). […]
# type I IFN production = experiment: IFNB induction (qPCR) in normal and colon cancer cells treated with AOM or DMH; assay type: cell-based, human; details: 15 mM for 20 hours
# Procedure: FIG. 22. Normal and colon cancer cells were treated with AOM or DMH at 15 mM for 20 hours. IFNB induction was analyzed by qPCR. STING, IRF3 and NF-kB translocation was examined: +, translocation; −, no translocation.
# The question arises as to why the STING-signaling pathway may be inhibited in colon adenocarcinoma. Recently, it was shown that STING-deficient cells and mice are sensitive to AOM-induced DNA damage. In this situation, the STING pathway may play a role in the DNA-damage response pathway, to induce the production of cytokines which facilitate tissue repair or damaged cell removal (Chatzinikolaou et al., 2014; Kidane et al., 2014; Lord and Ashworth, 2012). As such, innate immune induction of CA cells in response to DNA damaging agents was examined. […] Thus, the inhibition of the STING pathway may enable DNA damaged cells, harboring mutations, to escape part of the DNA damage response and the immune surveillance machinery to progress into a tumorigenic state.
structure (smiles),measurement,setting,value
"CNNC [DMH, 1,2-dimethylhydrazine]",STING-dependent gene expression,[1],A similar effect was observed
same,translocation of IRF3/NF-κB,IRF3/NF-κB translocation,could instigate the translocation of IRF3/NF-κB
same,production of type I IFN,type I IFN production; CA cells with defective STING activated IRF3 or NF-kB activity,unable to generate type I IFN
same,production of type I IFN,type I IFN production; normal colon epithelial (CCD841) and LS123,able to induce the production of type I IFN
